Assay results: paper PMC8285431, “Machine learning designs non-hemolytic antimicrobial peptides” (Chemical Science, 2021)
Ends that are not written are not given here.

Key:
human red blood cells = settings: 10 mM phosphate buffer saline pH 7.4, 25 °C, 4 h, visual inspection, 0.1% Triton X-100 positive control
Experimental: Compounds were subjected to a hemolysis assay to assess the hemolytic effect on human red blood cells (hRBCs). The blood was obtained from Interregionale Blutspende SRK AG, Bern, Switzerland. 1.5 mL of whole blood was centrifuged at 3000 rpm for 15 minutes at 4 °C. The plasma was discarded, and the hRBC pellet was re-suspended in 5 mL of PBS (pH 7.4) then centrifuged at 3000 rpm for 5 minutes at 4 °C. The washing of hRBC was repeated three times and the remaining pellet was re-suspended in 10 mL of PBS.
The samples were prepared as the initial concentration of 4000 μg mL^−1 in PBS, added to the first well of 96-well microtiter plate (TPP, untreated) and diluted serially by 1/2. […] Controls on each plate included a blank medium control (PBS 100 μL) and a hemolytic activity control (0.1% Triton X-100). 100 μL of hRBC suspension was incubated with 100 μL of each sample in PBS in 96-well plate (Nunc 96-Well Polystyrene Conical Bottom MicroWell Plates). After the plates were incubated for 4 h at room temperature, minimal hemolytic concentration (MHC) was determined by visual inspection of the wells. 100 μL supernatants was carefully pipetted to a flat bottom, clear wells plate (TPP® tissue culture plates, polystyrene).

P. aeruginosa = test: MIC, broth microdilution; assay type: cell-based, Pseudomonas aeruginosa; settings: Mueller–Hinton medium, 16–20 h at 37 °C, trifluoroacetate salts
Text: (§1) We synthesized the selected 14 GN and 14 GP peptides by solid phase peptide synthesis and evaluated the activity of their HPLC-purified trifluoroacetate salts by determining minimum inhibitory concentrations (MIC) against bacteria by broth microdilution assay in Muller–Hinton medium and minimum hemolysis concentrations (MHC) on human red blood cells by serial dilution in phosphate buffer saline (Table 1).
(§2) To determine the minimal inhibitory concentration (MIC), the broth microdilution method was used. A colony of bacteria was grown in LB (Lysogeny broth) medium overnight at 37 °C. The samples were prepared as stock solutions of 8 mg mL^−1 in H2O, diluted to the initial concentration of 64 or 128 μg mL^−1 in 300 μL Mueller–Hinton (MH) medium, added to the first well of 96-well microtiter plate (TPP, untreated), and diluted serially by 1/2. The concentration of the bacteria was quantified by measuring absorbance at 600 nm and diluted to OD600 = 0.022 in MH medium. The sample solutions (150 μL) were mixed with 4 μL diluted bacterial suspension with a final inoculation of about of 5 × 10^5 CFU. The plates were incubated at 37 °C until satisfactory growth (∼18 h). […] The MIC was defined as the lowest concentration of the peptide dendrimer that inhibited visible growth of the tested bacteria, as detected after treatment with MTT.

MRSA = test: MIC, broth microdilution; assay type: cell-based, methicillin-resistant Staphylococcus aureus; settings: Mueller–Hinton medium, 16–20 h at 37 °C, trifluoroacetate salts
Text: as §1, §2

E. coli = test: MIC, broth microdilution; assay type: cell-based, Escherichia coli; settings: Mueller–Hinton medium, 16–20 h at 37 °C, trifluoroacetate salts
Text: as §1, §2

A. baumannii = test: MIC, broth microdilution; assay type: cell-based, Acinetobacter baumannii; settings: Mueller–Hinton medium, 16–20 h at 37 °C, trifluoroacetate salts
Text: as §1, §2

[1] = test system: P. aeruginosa PA14 4.18 (pmrB); test: MIC, broth microdilution; assay type: cell-based; settings: spontaneous mutant, polymyxin B resistant; Müller–Hinton medium, 16–20 h, 37 °C; two independent experiments in duplicate
Experimental: (§3) To determine the minimal inhibitory concentration (MIC), the broth microdilution method was used. A colony of bacteria was grown in LB (Lysogeny broth) medium overnight at 37 °C. The samples were prepared as stock solutions of 8 mg mL^−1 in H2O, diluted to the initial concentration of 64 or 128 μg mL^−1 in 300 μL Mueller–Hinton (MH) medium, added to the first well of 96-well microtiter plate (TPP, untreated), and diluted serially by 1/2. The concentration of the bacteria was quantified by measuring absorbance at 600 nm and diluted to OD600 = 0.022 in MH medium. The sample solutions (150 μL) were mixed with 4 μL diluted bacterial suspension with a final inoculation of about of 5 × 10^5 CFU. The plates were incubated at 37 °C until satisfactory growth (∼18 h). For each test, two columns of the plate were kept for sterility control (broth only) and growth control (broth with bacterial inoculums, no antibiotics). The MIC was defined as the lowest concentration of the peptide dendrimer that inhibited visible growth of the tested bacteria, as detected after treatment with MTT.

[2] = test system: P. aeruginosa PA14 4.13 (phoQ); test: MIC, broth microdilution; assay type: cell-based; settings: spontaneous mutant, polymyxin B resistant; Müller–Hinton medium, 16–20 h, 37 °C; two independent experiments in duplicate
Experimental: as §3

P. aeruginosa PA14 = test: MIC, broth microdilution; assay type: cell-based; settings: Gram-negative; Müller–Hinton medium, 16–20 h, 37 °C; two independent experiments in duplicate
Experimental: as §3

[3] = test system: P. aeruginosa PA14 2P4 (pmrB); test: MIC, broth microdilution; assay type: cell-based; settings: spontaneous mutant, polymyxin B resistant; Müller–Hinton medium, 16–20 h, 37 °C; two independent experiments in duplicate
Experimental: as §3

S. maltophilia = assay type: cell-based; settings: MDR Gram-negative strain; Müller–Hinton medium, 16–20 h, 37 °C; two independent experiments in duplicate
Experimental: as §3

B. cenocepacia = assay type: cell-based; settings: MDR Gram-negative strain; Müller–Hinton medium, 16–20 h, 37 °C; two independent experiments in duplicate
Experimental: as §3

P. aeruginosa ZEM-1A = assay type: cell-based; settings: MDR Gram-negative strain; Müller–Hinton medium, 16–20 h, 37 °C; two independent experiments in duplicate
Experimental: as §3

P. aeruginosa ZEM9A = assay type: cell-based; settings: MDR Gram-negative strain; Müller–Hinton medium, 16–20 h, 37 °C; two independent experiments in duplicate
Experimental: as §3

E. cloacae = assay type: cell-based; settings: MDR Gram-negative strain; Müller–Hinton medium, 16–20 h, 37 °C; two independent experiments in duplicate
Experimental: as §3

S. epidermidis = assay type: cell-based; settings: MDR Gram-positive strain; Müller–Hinton medium, 16–20 h, 37 °C; two independent experiments in duplicate; in µg/mL
Experimental: as §3

K. pneumoniae NCTC148 = assay type: cell-based, Klebsiella pneumoniae; settings: MDR Gram-negative strain; Müller–Hinton medium, 16–20 h, 37 °C; two independent experiments in duplicate
Experimental: as §3

K. pneumoniae (OXA-48) = assay type: cell-based, Klebsiella pneumoniae; settings: MDR Gram-negative strain; Müller–Hinton medium, 16–20 h, 37 °C; two independent experiments in duplicate
Experimental: as §3

Substance | MHC (minimal hemolytic concentration) (human red blood cells) [µg/mL] | other results
LNALKKVFQKIRQGL [GN4, ML-generated linear peptide carboxamide from the P. aeruginosa/A. baumannii model] | >2000 | MIC P. aeruginosa (P. aeruginosa): 32 µg/mL; MIC MRSA (MRSA): >64 µg/mL; MIC E. coli (E. coli): 4 µg/mL; MIC A. baumannii (A. baumannii): 16 µg/mL
IDKWKAAFKKIKNLF-NH2 [GN3] | 500 | 
FLKAVKKLIPSLF-NH2 [GP1] | 2000 | 
GNWRKIVHKIKKAG-NH2 [GN12] | >2000 | 
IHKLAKLAKNVL-NH2 [GN14] | >2000 | 
AGRLQKVFKVIAK-NH2 [GN13] | >2000 | 
GRIKRIRKIIHKY-NH2 [GP8] | >2000 | 
LRKARRLLKKLRARL-NH2 [GN11] | >2000 | 
FLHSIGKAIGRLLR-NH2 [GP3] | 250 | 
KRIRKWVRRILKKL-NH2 [GN7] | 250 | 
RRWKWRRKIKKWL-NH2 [GN2] | 1000 | 
RLRKKWRKLKKLL-NH2 [GN6] | 2000 | 
AKKVVKKIYKRFQK-NH2 [GP10] | >2000 | 
GIGAVLNVAKKLL-NH2 [GP4] | >2000 | 
KFFRKLKKLVKK-NH2 [GN5] | >2000 | 
Polymyxin B |  | MIC P. aeruginosa PA14 4.18 (pmrB) [1]: 2 µg/mL; MIC P. aeruginosa PA14 4.13 (phoQ) [2]: 1 µg/mL; MIC P. aeruginosa PA14 (P. aeruginosa PA14): < 0.5 µg/mL; MIC P. aeruginosa PA14 2P4 (pmrB) [3]: 2 µg/mL; MIC S. maltophilia (S. maltophilia): 0.5 µg/mL; MIC B. cenocepacia (B. cenocepacia): > 64 µg/mL; MIC P. aeruginosa ZEM-1A (P. aeruginosa ZEM-1A): 0.5 µg/mL; MIC P. aeruginosa ZEM9A (P. aeruginosa ZEM9A): 4 µg/mL; MIC E. cloacae (E. cloacae): 1 µg/mL; MIC S. epidermidis (S. epidermidis): 32–64; MIC K. pneumoniae NCTC148 (K. pneumoniae NCTC148): 1 µg/mL; MIC K. pneumoniae (OXA-48) (K. pneumoniae (OXA-48)): 1 µg/mL
ARKFRRLVKKLR-NH2 [GP11] | >2000 | 
IRRIRKKIKKIFKKI-NH2 [GN10] | >2000 | 
AKRIRKLIKKIFKKI-NH2 [GN1] | >2000 | 
ARKWRKFLKKI-NH2 [GP7] | >2000 | 
LRKARRLVKKLA-NH2 [GP12] | >2000 | 
LNALKKVFQKIH-NH2 [GP14] | >2000 | 
KRLWKIRQRIAK-NH2 [GP13] | >2000 | 
LKKLWKRIIKVGR-NH2 [GP6] | >2000 | 
ARKKWRKRLKKLKI-NH2 [GP9] | >2000 | 
KRLWKRIYRLLKK-NH2 [GN9] | 250 | 
LRKFWKKIRKFLKKI-NH2 [GN8] | 62.5 | 
KVARFLKKFFR-NH2 [GP5] | >2000 | 
RWRWPILGRILR-NH2 [GP2] | 500 | 
